Data published in patent US20210017607A1, “Methods of Predicting Responsiveness to Cancer Therapies” (The University of Chicago, priority 2019, published 2021).

Tests used:
[1] = tested on: PTEN/p53-deficient GEMM tumors; experiment: PTEN/p53-deficient GEMM in vivo immune profiling; set-up: species or system mouse; settings: for CD4 and CD8 T-cell infiltration / Gr-MDSC and Tregs: copanlisib 14 mg/kg/day every alternate day, 4 weeks
Method: FIGS. 48A and 48B. […] PTEN/p53-deficient GEMM mice with established tumors were treated with DMXAA every other day for 14 days. Tumors were harvested and subjected to flow cytometry for detection of the indicated markers. (48A) CD8 infiltration; (48B) M1/M2 ratio of F4/80^+ cells where M1 are defined as MHC-II^+ and M2 cells are MHC-II^−. The frequency of Gr-MDSCs (Ly6C^−Ly6G^+) and surface expression of V-domain Ig suppressor of T cell activation (VISTA) and PD-L1 on Gr-MDSCs are shown.
FIGS. 71A and 71B. […] PTEN/p53-deficient GEMM mice (n=2/group) with established tumors were treated with copanlisib (14 mg/kg/day, every alternate day) for 4 weeks. Tumors were collected and analyzed for changes in global immune infiltrates, shown clockwise from twelve o'clock: CD4+, CD8+, CD19+, F4/80+, CD11c+, Mo-MDSC, Gr-MDSC, neutrophils (71A) and Treg frequency (71B) by flow cytometry. n=2 mice per arm.
Flow Cytometry. Murine tumors: Murine tumors were processed into single cell suspensions via gentle mechanical dissociation in 6 well plates containing 1 mL of 10% RPMI media supplemented with 10% fetal bovine serum, 1% penicillin-streptomycin and 2% L-glutamine. Cell suspensions were centrifuged at 500×g for 5 minutes at 4° C. and were passed through a 70-micron mesh, prior to re-suspension in FACS buffer (1×PBS containing 0.5% FBS and 0.01% sodium azide). For the stain, one million cells resuspended in 1×FACS buffer, were incubated with titrated concentrations of anti-mouse antibodies (Biolegend®), namely, CD45, CD11b, CD11c, CD19, F480,Ly6G, Ly6C, PD-L1, VISTA, I-A^e/IA^b, H-2K^b, CD3, CD4, CD8, 4-1BB, ICOS, and PD-1. Incubation with antibodies was done at 4° C. for 30-40 minutes. Following staining, cells were washed twice with 1× FACS buffer and fixed with 300 microliters of 4% paraformaldehye (Fisher Scientific®). Intracellular stains were done following fixation and permeabilization by staining with anti-mouse FOXP3 (Biolegend®) as per manufacturer's protocol. Analysis of cellular stains were done using BD instrument LSR 4-15 Fortessa™. Data files collected using BDFACSDIVA software were analyzed using FlowJo® software (Tree Star).

[2] = tested on: Myc-CAP-PTEN^−/− cells; experiment: Myc-CAP-PTEN−/− cells in vitro (western blotting, cytokine array); format: cell-based, mouse; settings: 24 hours
Method: FIGS. 35A-35D. […] (35A) Myc-CAP-PTEN^−/− cells were treated with copanlisib […] (IC90 concentration) in vitro for 24 hours, and protein extracts were harvested for western blotting analysis with the indicated antibodies to analyze PI3K activation. (35B) Supernatants from (35A) were harvested for cytokine array profiling. n=3 independent in vitro experiments. (35C) Mice bearing Myc-CAP-PTEN^−/− established syngeneic tumors (200 mm^3) were treated with copanlisib (14 mg/kg, every other day, until tumors reached 2000 mm^3). Tumor volumes were monitored daily and graphed. (35D) At the end of treatment, tumors were analyzed by flow cytometry for tumor infiltrating immune cell subsets. n=5 mice per group.
FIGS. 49A and 49B. PTEN-deficient cancer cells have diminished STING expression that can be restored by […] and pan-PI3K inhibitors. (49A) Isogenic MC38, Myc-CAP, ID8, and TRAMP cells (−/+ PTEN) were analyzed for STING mRNA and protein expression by qRT-PCR and western blotting, respectively. (49B) Myc-CAP-PTEN^−/− cells were treated with GSK′771 (PI3Kβ-selective inhibitor, 1 μM) or BKM120 (pan-PI3K inhibitor, 1 μM) for 24 hours, and proteins were analyzed for STING expression and PI3K activation by western blotting.
Cancer Cell Lines and in vitro drug treatments. Transgenic c-myc^hi prostate tumor derived cell line, Myc-CAP and TRAMPC1, ovarian cancer cell line ID8 and murine colon adenocarcinoma line MC38 were obtained from the American Type Culture Collection (ATCC) and passaged in either 1×RPMI/1×DMEM (with phenol) or 1×DMEM (without phenol red) containing 10% fetal bovine serum, 1% penicillin-streptomycin, 2% L-glutamine and 1×ITS. ID8^pten−/−p53−/−cells were a kind gift from Dr. Ian McNeish (Imperial College, London). For generation of STING over expressing cell lines −Myc-CAP^pten+/+ and ID8^pten−/− cells were transfected with commercial available plasmid (DC-Mm22462-SH02, Genecoepia™), sorted and expanded as per protocol. […]

[3] = DMXAA every other day for 14 days

What does the source list for `Cc1ccc2c(=O)c3cccc(CC(=O)O)c3oc2c1C` [DMXAA, 5,6-Dimethylxanthenone-4-acetic Acid]?
CD8 T cell infiltration [1, 3]: increases CD8 T cell infiltration; myeloid immunosuppression [1, 3]: relieves myeloid immunosuppression; MDSC infiltration ([1]; DMXAA, PTEN/p53 GEMM mice): decreased MDSC infiltration; VISTA and PD-L1 checkpoint expression on MDSCs ([1]; DMXAA, PTEN/p53 GEMM mice): reduction; myeloid reprogramming and Type I interferon production within the TME ([1]; Myc-CAP-PTEN knockout and PTEN/p53-deficient GEMM tumors): myeloid reprogramming and Type I interferon production; TIL exhaustion markers ([1]; after DMXAA): decreased 4-1BB, decreased ICOS and increased PD-1

How did the “STING expression (western blotting)” value ([2]; 1 μM) turn out when `Nc1cc(C(F)(F)F)c(-c2cc(N3CCOCC3)nc(N3CCOCC3)n2)cn1` [buparlisib] was run?
Its value is “restored”.

With `COc1c(OCCCN2CCOCC2)ccc2c1N=C(NC(=O)c1cnc(N)nc1)N1CCN=C21` [copanlisib] as the compound, how does the CXCL1 production ([2]; copanlisib 100 nm, cytokine array) read?
Its CXCL1 production is “decreasing CXCL1 production”.

What about the “CD4 and CD8 T-cell infiltration” value [1] of the same compound?
The value was “striking increase”.

And the “Gr-MDSC and Tregs” value [1]?
The value was “depletion”.

What about the “CD4 and CD8 T-cell infiltration” value ([1]; listed as Copanlisib) of the same compound?
Its value is “increases CD4 and CD8 T-cell infiltration”.

And the “Gr-MDSC and Tregs” value ([1]; listed as Copanlisib)?
Its value is “decreases Gr-MDSC and Tregs”.
